Here are results for 25 molecules from patent US20090012103A1, “SUBSTITUTED HETEROCYCLIC COMPOUNDS” (priority 2007, published 2009).

The target of this test is wild-type human cardiac sodium channel, hNav1.5 (Homo sapiens, UniProt Q14524). Description: Late INa screening assay (late sodium current, PatchXpress whole cell patch clamp). To be noted: compound at 10 μM; read-out: Late INa % blk. It is filed as cell-based. (In general: Patch clamp records ionic current or voltage across a cell membrane.)
Sequence of wild-type human cardiac sodium channel, hNav1.5 (Q14524 whole entry): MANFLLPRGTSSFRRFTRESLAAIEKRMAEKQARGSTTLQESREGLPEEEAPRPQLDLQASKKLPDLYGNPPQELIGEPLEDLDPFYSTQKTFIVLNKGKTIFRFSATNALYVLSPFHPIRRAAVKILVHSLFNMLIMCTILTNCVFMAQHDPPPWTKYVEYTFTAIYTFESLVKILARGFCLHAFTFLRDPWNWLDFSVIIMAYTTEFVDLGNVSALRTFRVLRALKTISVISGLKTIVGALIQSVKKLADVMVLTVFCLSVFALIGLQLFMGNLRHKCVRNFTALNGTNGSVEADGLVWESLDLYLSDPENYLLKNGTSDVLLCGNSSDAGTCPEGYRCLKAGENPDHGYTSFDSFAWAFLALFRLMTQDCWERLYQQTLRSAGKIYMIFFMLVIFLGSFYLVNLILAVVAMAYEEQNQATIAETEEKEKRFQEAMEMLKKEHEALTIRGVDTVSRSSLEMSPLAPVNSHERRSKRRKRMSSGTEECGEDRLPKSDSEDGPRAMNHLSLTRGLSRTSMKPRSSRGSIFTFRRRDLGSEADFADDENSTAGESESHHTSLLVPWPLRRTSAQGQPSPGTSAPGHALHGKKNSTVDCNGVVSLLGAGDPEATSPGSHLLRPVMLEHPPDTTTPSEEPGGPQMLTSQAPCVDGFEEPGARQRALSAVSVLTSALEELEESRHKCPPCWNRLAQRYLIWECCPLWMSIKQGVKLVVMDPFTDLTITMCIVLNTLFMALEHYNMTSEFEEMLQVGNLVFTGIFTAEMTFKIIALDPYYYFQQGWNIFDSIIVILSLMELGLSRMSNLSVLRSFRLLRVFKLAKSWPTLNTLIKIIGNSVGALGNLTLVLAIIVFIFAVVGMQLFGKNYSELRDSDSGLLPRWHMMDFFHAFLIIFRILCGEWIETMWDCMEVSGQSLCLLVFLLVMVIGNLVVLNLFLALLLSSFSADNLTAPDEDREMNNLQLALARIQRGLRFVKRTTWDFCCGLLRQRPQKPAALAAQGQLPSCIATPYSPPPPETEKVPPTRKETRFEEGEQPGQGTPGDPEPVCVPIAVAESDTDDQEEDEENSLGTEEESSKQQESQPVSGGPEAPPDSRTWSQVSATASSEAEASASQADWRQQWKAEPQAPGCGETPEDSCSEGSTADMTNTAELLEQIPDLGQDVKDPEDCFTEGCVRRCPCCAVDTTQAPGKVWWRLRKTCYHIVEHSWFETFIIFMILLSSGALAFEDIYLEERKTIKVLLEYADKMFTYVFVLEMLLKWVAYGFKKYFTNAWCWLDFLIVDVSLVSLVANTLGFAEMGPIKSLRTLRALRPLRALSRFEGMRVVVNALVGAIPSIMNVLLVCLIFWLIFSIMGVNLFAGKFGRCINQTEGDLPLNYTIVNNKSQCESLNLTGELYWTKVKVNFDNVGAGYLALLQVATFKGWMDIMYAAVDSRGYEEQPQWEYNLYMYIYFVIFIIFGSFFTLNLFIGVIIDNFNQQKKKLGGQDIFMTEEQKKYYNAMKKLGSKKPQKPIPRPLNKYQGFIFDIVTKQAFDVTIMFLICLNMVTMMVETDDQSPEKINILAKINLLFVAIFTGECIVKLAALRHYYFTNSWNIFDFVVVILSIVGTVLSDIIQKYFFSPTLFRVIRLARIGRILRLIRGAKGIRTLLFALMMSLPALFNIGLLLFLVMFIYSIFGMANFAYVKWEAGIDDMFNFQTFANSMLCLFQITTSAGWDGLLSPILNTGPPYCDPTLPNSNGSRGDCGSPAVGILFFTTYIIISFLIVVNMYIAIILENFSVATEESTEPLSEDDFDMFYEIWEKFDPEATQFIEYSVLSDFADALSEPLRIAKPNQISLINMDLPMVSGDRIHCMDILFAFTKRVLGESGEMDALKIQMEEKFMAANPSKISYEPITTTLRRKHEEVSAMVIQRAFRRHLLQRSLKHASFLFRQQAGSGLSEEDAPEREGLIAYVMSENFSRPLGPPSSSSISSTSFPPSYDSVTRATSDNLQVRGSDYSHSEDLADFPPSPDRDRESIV
For `COc1cccc(-c2ccccc2[C@@H]2C(C(=O)OCc3ccccc3)=C(C)Nc3nnnn32)c1` [PT-241, (R)-benzyl 7-(3′-methoxybiphenyl-2-yl)-5-methyl-4,7-dihydrotetrazolo[1,5-a]pyrimidine-6-carboxylate], the inhibition at 10 µM worked out at 77.1%.
With `CC1=C(C(=O)OCc2ccccc2)[C@@H](c2ccccc2-c2ccc(C(N)=O)cc2)n2nnnc2N1` [PT-242, (R)-benzyl 7-(4′-carbamoylbiphenyl-2-yl)-5-methyl-4,7-dihydrotetrazolo[1,5-a]pyrimidine-6-carboxylate] the figure was 11%.
With `CC1=C(C(=O)OCc2ccccc2)[C@@H](c2ccccc2-c2ccc(C#N)cc2)n2nnnc2N1` [PT-243, (R)-benzyl 7-(4′-cyanobiphenyl-2-yl)-5-methyl-4,7-dihydrotetrazolo[1,5-a]pyrimidine-6-carboxylate] the figure was 91.5%; with `CC1=C(C(=O)OCc2ccccc2)C(c2ccccc2-c2cccc(C(=O)O)c2)C2=C(CCCC2=O)N1` (stereo not shown) [PT-248, 2′-(3-(benzyloxycarbonyl)-2-methyl-5-oxo-1,4,5,6,7,8-hexahydroquinolin-4-yl)biphenyl-3-carboxylic acid], 27.2%.
To `CCOC(=O)C1=C(C)NC2=C(C(=O)CCC2)C1c1ccccc1-c1ccc(C(=O)O)cc1` (stereo not shown) [PT-250, 2′-(3-(ethoxycarbonyl)-2-methyl-5-oxo-1,4,5,6,7,8-hexahydroquinolin-4-yl)biphenyl-4-carboxylic acid] belongs 7.6%; to `COC(=O)c1ccc(OCCOC(=O)C2=C(C)Nc3nnnn3C2c2cccc3ccccc23)cc1` (stereo not shown) [PT-251, 2-(4-(methoxycarbonyl)phenoxy)ethyl 5-methyl-7-(naphthalen-1-yl)-4,7-dihydrotetrazolo[1,5-a]pyrimidine-6-carboxylate], 11.5%; to `CC1=C(C(=O)OCc2ccccc2)C(c2ccccc2-c2cccc(C(=O)O)c2)n2nnnc2N1` (stereo not shown) [PT-253, 2′-(6-(benzyloxycarbonyl)-5-methyl-4,7-dihydrotetrazolo[1,5-a]pyrimidin-7-yl)biphenyl-3-carboxylic acid], 9.1%.
For the molecule `CC1=C(C(=O)OCc2ccccc2)C(c2ccccc2B(O)O)n2nnnc2N1` (stereo not shown) [PT-255, 2-(6-(benzyloxycarbonyl)-5-methyl-4,7-dihydrotetrazolo[1,5-a]pyrimidin-7-yl)phenylboronic acid], the inhibition at 10 µM was determined as 20.6%.
Regarding `CC1=C(C(=O)OCc2ccccc2)C(c2sccc2B(O)O)n2nnnc2N1` (stereo not shown) [PT-256, 2-(6-(benzyloxycarbonyl)-5-methyl-4,7-dihydrotetrazolo[1,5-a]pyrimidin-7-yl)thiophen-3-ylboronic acid], the inhibition at 10 µM is 25.7%.
For `CC1=C(C(=O)OCc2ccccc2)C(c2cccc3ccccc23)n2nnnc2N1CC(=O)O` (stereo not shown) [PT-257, 2-(6-(benzyloxycarbonyl)-5-methyl-7-(naphthalen-1-yl)tetrazolo[1,5-a]pyrimidin-4(7H)-yl)acetic acid], the inhibition at 10 µM is 7.4%.
With `CCOC(=O)C1=C(C)N(CC(=O)O)c2nnnn2C1c1cccc2ccccc12` (stereo not shown) [PT-258, 2-(6-(ethoxycarbonyl)-5-methyl-7-(naphthalen-1-yl)tetrazolo[1,5-a]pyrimidin-4(7H)-yl)acetic acid] the figure was 1.6%; with `CC1=C(C(=O)OC2Cc3ccccc3C2)C(c2cccc3ccccc23)n2nnnc2N1` (stereo not shown) [PT-260, 2,3-dihydro-1H-inden-2-yl 5-methyl-7-(naphthalen-1-yl)-4,7-dihydrotetrazolo[1,5-a]pyrimidine-6-carboxylate], 74.8%; with `CC1=C(c2nnc(Cc3ccccc3)o2)C(c2cccc3ccccc23)n2nnnc2N1` (stereo not shown) [PT-261, 2-benzyl-5-(5-methyl-7-(naphthalen-1-yl)-4,7-dihydrotetrazolo[1,5-a]pyrimidin-6-yl)-1,3,4-oxadiazole], 59.4%.
To `CC1=C(C(=O)OC(C)(C)Cc2ccccc2)C(c2ccccc2Br)c2cn[nH]c2N1` (stereo not shown) [PT-263, 2-methyl-1-phenylpropan-2-yl 4-(2-bromophenyl)-6-methyl-4,7-dihydro-1H-pyrazolo[3,4-b]pyridine-5-carboxylate] belongs 38.8%; to `CC1=C(C(=O)N2CCCCC2)C(c2cccc3ccccc23)C2=C(CCCC2=O)N1` (stereo not shown) [PT-265, 2-methyl-4-(naphthalen-1-yl)-3-(piperidine-1-carbonyl)-4,6,7,8-tetrahydroquinolin-5(1H)-one], 18.6%.
To `CC1=C(C(=O)NNC(=O)Cc2ccccc2)C(c2cccc3ccccc23)C2=C(CCCC2=O)N1` (stereo not shown) [PT-266, 2-methyl-4-(naphthalen-1-yl)-5-oxo-N′-(2-phenylacetyl)-1,4,5,6,7,8-hexahydroquinoline-3-carbohydrazide] belongs 8.8%; to `CC1=C(c2nnc(C)o2)C(c2cccc3ccccc23)n2nnnc2N1` (stereo not shown) [PT-267, 2-methyl-5-(5-methyl-7-(naphthalen-1-yl)-4,7-dihydrotetrazolo[1,5-a]pyrimidin-6-yl)-1,3,4-oxadiazole], 17%.
On to `CCOC(=O)C1=C(C)Nc2nnnn2C1c1ccccc1OCc1cccc(C(=O)O)c1` (stereo not shown) [PT-268, 3-((2-(6-(ethoxycarbonyl)-5-methyl-4,7-dihydrotetrazolo[1,5-a]pyrimidin-7-yl)phenoxy)methyl)benzoic acid], for which the inhibition at 10 µM came out at 9.5%.
For `CCOC(=O)C1=C(C)Nc2nnnn2C1c1cccc(OCc2cccc(C(=O)O)c2)c1` (stereo not shown) [PT-269, 3-((3-(6-(ethoxycarbonyl)-5-methyl-4,7-dihydrotetrazolo[1,5-a]pyrimidin-7-yl)phenoxy)methyl)benzoic acid], the inhibition at 10 µM was determined as 12.3%.
With `CC1=C(C(=O)OCc2cccc(-c3nnn[nH]3)c2)C(c2cccc3ccccc23)n2nnnc2N1` (stereo not shown) [PT-271, 3-(1H-tetrazol-5-yl)benzyl 5-methyl-7-(naphthalen-1-yl)-4,7-dihydrotetrazolo[1,5-a]pyrimidine-6-carboxylate] the figure was 5.8%; with `CCOC(=O)C1=C(C)Nc2nnnn2C1c1ccccc1Oc1cccc(C(=O)O)c1` (stereo not shown) [PT-272, 3-(2-(6-(ethoxycarbonyl)-5-methyl-4,7-dihydrotetrazolo[1,5-a]pyrimidin-7-yl)phenoxy)benzoic acid], -4.9%.
To `COC(=O)C1=C(C)Nc2nnnn2C1c1sc2ccccc2c1-c1cccc(C(=O)O)c1` (stereo not shown) [PT-273, 3-(2-(6-(methoxycarbonyl)-5-methyl-4,7-dihydrotetrazolo[1,5-a]pyrimidin-7-yl)benzo[b]thiophen-3-yl)benzoic acid] belongs 14.1%.
Turning to `CCOC(=O)C1=C(C)Nc2nnnn2C1c1cccc(Oc2cccc(C(=O)O)c2)c1` (stereo not shown) [PT-274, 3-(3-(6-(ethoxycarbonyl)-5-methyl-4,7-dihydrotetrazolo[1,5-a]pyrimidin-7-yl)phenoxy)benzoic acid], the inhibition at 10 µM was 16.8%.
With `COC(=O)C1=C(C)Nc2nnnn2C1c1c(-c2cccc(C(=O)O)c2)sc2ccccc12` (stereo not shown) [PT-275, 3-(3-(6-(methoxycarbonyl)-5-methyl-4,7-dihydrotetrazolo[1,5-a]pyrimidin-7-yl)benzo[b]thiophen-2-yl)benzoic acid] the figure was 9.4%; with `CC1=C(C(=O)OCc2ccccc2)C(c2ccsc2B(O)O)n2nnnc2N1` (stereo not shown) [PT-277, 3-(6-(benzyloxycarbonyl)-5-methyl-4,7-dihydrotetrazolo[1,5-a]pyrimidin-7-yl)thiophen-2-ylboronic acid], 18%.
